Results on one cell line are retold here after the supplement of paper PMC10307832.

Common to all, as to assay: relative viability (nuclei count vs DMSO), 5 days (fraction); higher = more cells survive
Compound in experiment [1]: N#CC1(c2ccc(NC(=O)c3cccnc3NCc3ccncc3)cc2)CCCC1 [Apatinib] + NC(=O)Nc1cc(-c2cccc(F)c2)sc1C(=O)N[C@H]1CCCNC1 [AZD7762] (partner 0.2 µM)
The gist of the method:
(§1)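 Lung cancer cell lines were seeded in 1536-well plates and dosed by pin tool the next day, with either a single drug or a fixed anchor-drug dose combined with five library-drug doses (not always all listed) spaced in √10 steps. Five days later, one step fixed the cells and stained their nuclei (final 0.05% Triton X-100, 1% formaldehyde, 1 ug/ml Hoechst), and nuclei were counted on 4× images. Relative viability is the nuclei count in treated wells divided by the count in vehicle wells, and each value is the median of duplicate plates.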

Compound in experiment [2]: CN(C)C(=N)NC(=N)N [Metformin] + C[C@@H](Oc1cc(-c2cnn(C3CCNCC3)c2)cnc1N)c1c(Cl)ccc(F)c1Cl [Crizotinib] (partner 1 µM)
In a few lines:
as §1

Compound in experiment [3]: N#CC1(c2ccc(NC(=O)c3cccnc3NCc3ccncc3)cc2)CCCC1 [Apatinib] + CC(C)C[C@H](NC(=O)[C@H](Cc1ccccc1)NC(=O)c1cnccn1)B(O)O [Bortezomib] (partner 0.002 µM)
In a few lines:
as §1

Compound in experiment [4]: CN(C)C(=N)NC(=N)N [Metformin] + CC(C)C[C@H](NC(=O)[C@H](Cc1ccccc1)NC(=O)c1cnccn1)B(O)O [Bortezomib] (partner 0.002 µM)
The gist of the method: as §1

CAL-12T: the relative viability stood at 0.618 in experiment [1] (first compound 0.08 µM); 0.53 in experiment [1] (first compound 0.253 µM); 0.603 in experiment [1] (first compound 0.8 µM); 0.51 in experiment [1] (first compound 2.53 µM); 0.468 in experiment [1] (first compound 8 µM); 0.64 in experiment [2] (first compound 31.62 µM). For the same cell line, the relative viability stood at 0.552 in experiment [2] (first compound 100 µM); 0.611 in experiment [2] (first compound 316.23 µM); 0.521 in experiment [2] (first compound 1000 µM); 1.11 in experiment [3] (first compound 0.08 µM); 0.908 in experiment [3] (first compound 0.253 µM); 1.06 in experiment [3] (first compound 0.8 µM). Besides, the relative viability in experiment [3] (first compound 2.53 µM) came to 0.819; in experiment [3] (first compound 8 µM) it was 1.09; in experiment [4] (first compound 10 µM), 1.16; in experiment [4] (first compound 31.62 µM) it was 0.935; in experiment [4] (first compound 100 µM), 1.02; in experiment [4] (first compound 316.23 µM) it was 1.06. Also, the relative viability in experiment [4] (first compound 1000 µM) came out at 1.15.
